Among the data in ChEMBL document CHEMBL3991601, “The target landscape of clinical kinase drugs” (Science, 2017) are Kd values, retold here.

Calls of active or inactive are those of the source. Cut-off read from the data, not from the text of the source, for most assays here: actives have a measured Kd and inactives only a lower limit. Where only a bound is given, the exact number is not on record here.

Assay [1] concerns the target T1, Serine/threonine-protein kinase TAO3 (Homo sapiens, UniProt Q9H2K8).
T1 sequence (Q9H2K8 whole entry): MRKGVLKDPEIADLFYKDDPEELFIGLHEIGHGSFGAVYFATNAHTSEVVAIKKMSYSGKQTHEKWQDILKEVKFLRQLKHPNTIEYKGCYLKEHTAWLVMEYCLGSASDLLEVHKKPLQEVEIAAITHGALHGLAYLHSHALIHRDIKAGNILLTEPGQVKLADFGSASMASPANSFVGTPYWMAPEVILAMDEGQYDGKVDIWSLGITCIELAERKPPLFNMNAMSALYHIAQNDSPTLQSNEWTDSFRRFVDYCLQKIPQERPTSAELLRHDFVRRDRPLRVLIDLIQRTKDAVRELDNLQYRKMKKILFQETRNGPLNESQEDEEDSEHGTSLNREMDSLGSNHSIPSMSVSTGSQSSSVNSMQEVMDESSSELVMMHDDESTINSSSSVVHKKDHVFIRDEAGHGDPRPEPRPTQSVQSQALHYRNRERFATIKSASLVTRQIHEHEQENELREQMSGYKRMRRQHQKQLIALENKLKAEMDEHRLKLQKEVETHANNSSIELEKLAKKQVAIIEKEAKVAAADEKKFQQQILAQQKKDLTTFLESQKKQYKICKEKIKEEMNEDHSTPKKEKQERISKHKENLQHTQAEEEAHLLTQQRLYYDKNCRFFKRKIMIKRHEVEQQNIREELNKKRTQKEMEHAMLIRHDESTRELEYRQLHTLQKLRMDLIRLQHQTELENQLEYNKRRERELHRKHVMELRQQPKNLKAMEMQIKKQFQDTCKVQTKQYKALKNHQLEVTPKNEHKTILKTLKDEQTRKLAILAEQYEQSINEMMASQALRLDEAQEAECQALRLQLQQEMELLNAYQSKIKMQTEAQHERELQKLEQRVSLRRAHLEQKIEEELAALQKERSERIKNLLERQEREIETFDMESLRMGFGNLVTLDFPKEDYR

Assay [2] deals with T2, Serine/threonine-protein kinase Nek3 (Homo sapiens, UniProt P51956).
T2 sequence (P51956 whole entry): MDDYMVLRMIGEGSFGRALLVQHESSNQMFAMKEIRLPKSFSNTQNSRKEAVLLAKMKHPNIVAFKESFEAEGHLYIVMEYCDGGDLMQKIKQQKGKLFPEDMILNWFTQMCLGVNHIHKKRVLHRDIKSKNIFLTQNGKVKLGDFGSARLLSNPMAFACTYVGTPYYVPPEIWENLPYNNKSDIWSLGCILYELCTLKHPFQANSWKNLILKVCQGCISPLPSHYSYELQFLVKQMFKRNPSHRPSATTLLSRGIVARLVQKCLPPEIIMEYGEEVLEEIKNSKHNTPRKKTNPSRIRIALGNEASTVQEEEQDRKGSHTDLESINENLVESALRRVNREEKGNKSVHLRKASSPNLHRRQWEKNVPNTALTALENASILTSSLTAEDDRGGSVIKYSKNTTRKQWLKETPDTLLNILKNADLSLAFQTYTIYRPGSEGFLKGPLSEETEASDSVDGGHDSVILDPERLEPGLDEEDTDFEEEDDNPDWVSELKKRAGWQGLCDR

Assay [3] addresses T3, Bifunctional phosphoribosylaminoimidazole carboxylase/phosphoribosylaminoimidazole succinocarboxamide synthetase (Homo sapiens, UniProt P22234).
T3 sequence (P22234 whole entry): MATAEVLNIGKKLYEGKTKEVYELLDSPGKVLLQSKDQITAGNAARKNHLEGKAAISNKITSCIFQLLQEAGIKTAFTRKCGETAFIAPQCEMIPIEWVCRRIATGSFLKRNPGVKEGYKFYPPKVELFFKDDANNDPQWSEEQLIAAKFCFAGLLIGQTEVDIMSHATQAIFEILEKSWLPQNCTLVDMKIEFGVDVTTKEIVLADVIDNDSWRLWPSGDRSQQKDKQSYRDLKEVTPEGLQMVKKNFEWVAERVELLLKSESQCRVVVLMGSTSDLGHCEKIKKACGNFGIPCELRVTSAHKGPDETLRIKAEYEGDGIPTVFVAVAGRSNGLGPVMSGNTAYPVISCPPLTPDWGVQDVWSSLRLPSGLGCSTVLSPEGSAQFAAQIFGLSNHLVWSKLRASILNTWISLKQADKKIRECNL

Assay [4] deals with T4, Ras-related protein Rab-10 (Homo sapiens, UniProt P61026).
T4 sequence (P61026 whole entry): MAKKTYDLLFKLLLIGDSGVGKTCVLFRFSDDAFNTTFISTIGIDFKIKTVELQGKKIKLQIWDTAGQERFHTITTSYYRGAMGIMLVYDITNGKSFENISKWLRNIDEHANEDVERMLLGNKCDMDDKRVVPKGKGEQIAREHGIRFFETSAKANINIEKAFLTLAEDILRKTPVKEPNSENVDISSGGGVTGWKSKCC

In assay [5] the target is Cyclin-dependent kinase 6 (Homo sapiens, UniProt Q00534).
The target of assay [6] is Eukaryotic translation initiation factor 2-alpha kinase 1 (Homo sapiens, UniProt Q9BQI3).
Assay [7] concerns the target Mitogen-activated protein kinase kinase kinase kinase 5 (Homo sapiens, UniProt Q9Y4K4).
The target in assay [8] is Rho-associated protein kinase 2 (Homo sapiens, UniProt O75116).
Assay [9] has as its target T5, Serine/threonine-protein kinase 4 (Homo sapiens, UniProt Q13043).
T5 sequence (Q13043 whole entry): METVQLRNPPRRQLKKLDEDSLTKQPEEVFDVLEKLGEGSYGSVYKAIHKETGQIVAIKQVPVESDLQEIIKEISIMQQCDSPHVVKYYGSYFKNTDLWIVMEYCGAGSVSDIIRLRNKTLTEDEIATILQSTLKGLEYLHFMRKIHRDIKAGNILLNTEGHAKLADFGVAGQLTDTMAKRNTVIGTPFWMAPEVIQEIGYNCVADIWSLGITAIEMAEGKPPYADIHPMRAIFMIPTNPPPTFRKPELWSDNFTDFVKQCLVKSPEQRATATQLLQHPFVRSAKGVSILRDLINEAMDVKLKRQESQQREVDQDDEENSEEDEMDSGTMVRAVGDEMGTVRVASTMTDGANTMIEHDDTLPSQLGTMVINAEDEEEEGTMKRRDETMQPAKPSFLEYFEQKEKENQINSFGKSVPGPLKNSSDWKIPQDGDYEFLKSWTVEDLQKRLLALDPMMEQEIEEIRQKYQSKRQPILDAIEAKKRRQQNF

The target of assay [10] is Serine/threonine-protein kinase MRCK beta (Homo sapiens, UniProt Q9Y5S2).
For assay [11], the target named is Ribosomal protein S6 kinase alpha-4 (Homo sapiens, UniProt O75676).
Note: in the data inactive means no Kd found up to 30 µM.

Chain of Cyclin-dependent kinase 6 (Q00534 whole entry): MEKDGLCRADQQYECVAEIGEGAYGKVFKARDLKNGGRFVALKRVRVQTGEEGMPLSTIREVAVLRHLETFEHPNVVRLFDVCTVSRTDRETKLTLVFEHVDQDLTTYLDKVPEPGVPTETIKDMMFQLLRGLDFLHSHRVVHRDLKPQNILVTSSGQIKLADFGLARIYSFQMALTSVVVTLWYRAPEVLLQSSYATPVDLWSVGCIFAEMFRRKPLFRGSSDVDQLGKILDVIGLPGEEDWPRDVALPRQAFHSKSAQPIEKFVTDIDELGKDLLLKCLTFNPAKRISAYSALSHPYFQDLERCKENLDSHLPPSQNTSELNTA
Chain of Eukaryotic translation initiation factor 2-alpha kinase 1 (Q9BQI3 whole entry): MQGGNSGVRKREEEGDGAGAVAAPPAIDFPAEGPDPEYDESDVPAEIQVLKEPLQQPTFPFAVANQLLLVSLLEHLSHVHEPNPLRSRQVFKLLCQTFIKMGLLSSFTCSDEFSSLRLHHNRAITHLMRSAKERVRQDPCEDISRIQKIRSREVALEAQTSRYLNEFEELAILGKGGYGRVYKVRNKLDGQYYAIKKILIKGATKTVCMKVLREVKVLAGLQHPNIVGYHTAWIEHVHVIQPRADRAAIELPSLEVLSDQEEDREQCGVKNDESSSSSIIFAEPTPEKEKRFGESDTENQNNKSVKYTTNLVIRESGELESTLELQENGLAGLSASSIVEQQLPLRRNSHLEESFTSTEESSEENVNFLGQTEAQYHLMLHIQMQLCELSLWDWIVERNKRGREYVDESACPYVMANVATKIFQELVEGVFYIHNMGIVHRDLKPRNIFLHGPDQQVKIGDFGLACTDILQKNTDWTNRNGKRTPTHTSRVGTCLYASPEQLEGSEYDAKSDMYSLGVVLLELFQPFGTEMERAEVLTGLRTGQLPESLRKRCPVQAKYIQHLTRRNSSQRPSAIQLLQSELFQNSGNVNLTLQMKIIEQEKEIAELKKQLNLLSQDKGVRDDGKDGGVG
Chain of Rho-associated protein kinase 2 (O75116 whole entry): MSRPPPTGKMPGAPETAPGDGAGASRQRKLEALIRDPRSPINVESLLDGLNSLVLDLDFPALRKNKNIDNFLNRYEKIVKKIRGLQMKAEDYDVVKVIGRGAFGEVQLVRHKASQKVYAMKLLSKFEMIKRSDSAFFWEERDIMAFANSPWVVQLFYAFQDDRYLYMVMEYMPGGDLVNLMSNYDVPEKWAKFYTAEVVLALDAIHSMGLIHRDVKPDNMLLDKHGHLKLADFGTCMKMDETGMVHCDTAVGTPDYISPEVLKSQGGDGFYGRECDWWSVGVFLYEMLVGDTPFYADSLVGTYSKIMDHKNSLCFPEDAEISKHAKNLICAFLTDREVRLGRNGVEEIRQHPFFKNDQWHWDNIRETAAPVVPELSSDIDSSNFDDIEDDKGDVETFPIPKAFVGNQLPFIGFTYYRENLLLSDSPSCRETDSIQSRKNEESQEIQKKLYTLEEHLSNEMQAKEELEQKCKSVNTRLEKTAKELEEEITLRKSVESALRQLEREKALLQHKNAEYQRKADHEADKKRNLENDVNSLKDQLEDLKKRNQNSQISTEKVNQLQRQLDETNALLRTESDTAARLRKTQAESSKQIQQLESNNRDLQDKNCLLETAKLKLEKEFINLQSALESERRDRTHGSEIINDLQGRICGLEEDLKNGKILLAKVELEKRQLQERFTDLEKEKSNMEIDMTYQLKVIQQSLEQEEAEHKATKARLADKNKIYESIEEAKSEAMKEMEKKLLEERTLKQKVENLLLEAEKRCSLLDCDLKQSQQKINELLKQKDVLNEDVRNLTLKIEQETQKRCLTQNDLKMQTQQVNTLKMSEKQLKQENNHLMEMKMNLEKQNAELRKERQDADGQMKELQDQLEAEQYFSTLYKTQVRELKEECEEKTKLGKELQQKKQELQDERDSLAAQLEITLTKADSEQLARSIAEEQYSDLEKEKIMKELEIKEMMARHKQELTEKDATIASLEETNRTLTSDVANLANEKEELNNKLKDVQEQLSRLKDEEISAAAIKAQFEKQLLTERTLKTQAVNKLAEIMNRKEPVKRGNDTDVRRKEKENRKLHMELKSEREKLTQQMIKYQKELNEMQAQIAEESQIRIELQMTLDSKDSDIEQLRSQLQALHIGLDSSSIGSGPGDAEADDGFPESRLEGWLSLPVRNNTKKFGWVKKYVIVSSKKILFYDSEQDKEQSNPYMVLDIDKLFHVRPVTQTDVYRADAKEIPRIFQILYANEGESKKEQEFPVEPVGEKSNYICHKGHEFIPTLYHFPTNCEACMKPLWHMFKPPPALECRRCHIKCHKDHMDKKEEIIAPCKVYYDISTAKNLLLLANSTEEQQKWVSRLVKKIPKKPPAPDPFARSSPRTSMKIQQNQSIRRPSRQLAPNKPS
Chain of Mitogen-activated protein kinase kinase kinase kinase 5 (Q9Y4K4 whole entry): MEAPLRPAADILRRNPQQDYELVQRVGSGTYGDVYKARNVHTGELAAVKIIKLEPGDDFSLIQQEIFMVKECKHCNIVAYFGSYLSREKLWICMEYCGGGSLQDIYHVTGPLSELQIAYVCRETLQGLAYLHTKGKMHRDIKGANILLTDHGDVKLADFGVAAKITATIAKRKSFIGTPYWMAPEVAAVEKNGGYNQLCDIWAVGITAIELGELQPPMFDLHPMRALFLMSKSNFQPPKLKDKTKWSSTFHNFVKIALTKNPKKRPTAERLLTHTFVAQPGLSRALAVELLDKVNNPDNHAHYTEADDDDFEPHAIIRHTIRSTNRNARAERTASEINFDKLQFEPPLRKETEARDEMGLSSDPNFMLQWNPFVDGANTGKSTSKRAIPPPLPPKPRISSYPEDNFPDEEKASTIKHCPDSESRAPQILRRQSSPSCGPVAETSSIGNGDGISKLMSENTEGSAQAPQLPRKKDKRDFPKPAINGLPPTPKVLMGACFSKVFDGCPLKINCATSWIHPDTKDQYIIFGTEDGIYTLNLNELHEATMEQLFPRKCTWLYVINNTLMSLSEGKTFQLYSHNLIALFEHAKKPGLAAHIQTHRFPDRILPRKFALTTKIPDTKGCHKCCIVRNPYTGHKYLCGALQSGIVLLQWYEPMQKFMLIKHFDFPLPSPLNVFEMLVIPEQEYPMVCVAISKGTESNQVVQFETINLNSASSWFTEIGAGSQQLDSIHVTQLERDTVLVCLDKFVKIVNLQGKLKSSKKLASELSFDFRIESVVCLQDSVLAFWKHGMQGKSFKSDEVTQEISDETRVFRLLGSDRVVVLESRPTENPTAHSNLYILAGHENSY
Chain of Ribosomal protein S6 kinase alpha-4 (O75676 whole entry): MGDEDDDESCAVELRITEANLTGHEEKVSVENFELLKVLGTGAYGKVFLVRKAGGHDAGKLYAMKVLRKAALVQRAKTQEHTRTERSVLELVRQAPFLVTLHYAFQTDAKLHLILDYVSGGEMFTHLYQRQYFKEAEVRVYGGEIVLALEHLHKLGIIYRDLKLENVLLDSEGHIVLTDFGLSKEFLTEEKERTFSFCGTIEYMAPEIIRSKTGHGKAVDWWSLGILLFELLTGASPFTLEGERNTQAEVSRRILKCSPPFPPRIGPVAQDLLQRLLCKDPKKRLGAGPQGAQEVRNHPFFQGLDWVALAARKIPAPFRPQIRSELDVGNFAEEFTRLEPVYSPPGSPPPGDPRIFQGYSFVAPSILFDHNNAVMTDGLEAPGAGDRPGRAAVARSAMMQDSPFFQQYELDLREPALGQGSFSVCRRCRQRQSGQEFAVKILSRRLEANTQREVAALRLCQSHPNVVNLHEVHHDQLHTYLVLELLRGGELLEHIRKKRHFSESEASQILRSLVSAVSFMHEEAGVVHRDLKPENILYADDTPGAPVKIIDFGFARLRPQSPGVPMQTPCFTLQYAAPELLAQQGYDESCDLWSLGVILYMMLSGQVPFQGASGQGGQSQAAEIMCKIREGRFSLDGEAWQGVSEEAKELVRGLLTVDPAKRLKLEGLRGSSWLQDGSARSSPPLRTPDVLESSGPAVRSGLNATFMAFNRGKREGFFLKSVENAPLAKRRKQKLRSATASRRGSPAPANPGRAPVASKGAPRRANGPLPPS

For orientation: Kd means a measure of binding affinity in units of concentration. As for `C[C@@H](Nc1cc(F)cc(F)c1)c1cc(C(=O)N(C)C)cc2c(=O)cc(N3CCOCC3)oc12` [AZD-8186], the Kd in assay [1], in assay [2], in assay [3], in assay [4], in assay [5] and in assay [6] was > 30 µM (inactive) in each case. Besides, the Kd in assay [7], in [8], in [9], in assay [10] and in [11] was > 30 µM (inactive) in each case.
Turning to `Cc1c(F)cc(C(=O)NC2CC2)cc1-c1ccc(C(=O)NCC(C)(C)C)cn1` [LOSMAPIMOD], the Kd in assay [1], in [2], in [3], in [4], in assay [5] and in assay [6] was > 30 µM (inactive) in each case. Further, the Kd in [7], in assay [8], in assay [9], in assay [10] and in assay [11] was > 30 µM (inactive) in each case.
On to `COc1cc(CCc2cc(NC(=O)c3ccc(N4C[C@@H](C)N[C@@H](C)C4)cc3)n[nH]2)cc(OC)c1` [AZD-4547], for which the Kd in assay [1] was > 30 µM (inactive); in assay [2] it was > 30 µM (inactive); in assay [3], > 30 µM (inactive); in assay [4], > 30 µM (inactive); in assay [5], > 30 µM (inactive); in assay [6], 0.17 µM (active). For the same molecule, the equilibrium dissociation constant (Kd) in assay [7] is 0.006 µM (active); in assay [8], > 30 µM (inactive); in assay [9], > 30 µM (inactive); in assay [10], > 30 µM (inactive); in assay [11] it was > 30 µM (inactive).
Turning to `C=CC(=O)N1CCC(Oc2cc3c(Nc4ccc(Cl)c(Cl)c4F)ncnc3cc2OC)CC1` [POZIOTINIB], the Kd in assay [1], in [2], in assay [3], in assay [4], in assay [5] and in assay [6] was > 30 µM (inactive) each time. Also, the Kd in assay [7], in [8], in assay [9], in assay [10] and in assay [11] was > 30 µM (inactive) in each case.
For the molecule `Cc1cc2c(F)c(Oc3ncnn4cc(OC[C@@H](C)OC(=O)[C@H](C)N)c(C)c34)ccc2[nH]1` [BRIVANIB ALANINATE], the Kd in assay [1], in [2], in assay [3], in assay [4], in assay [5] and in assay [6] was > 30 µM (inactive) each time. The Kd in [7], in [8], in assay [9], in assay [10] and in assay [11] was > 30 µM (inactive) throughout.
For `C1=C/COCc2cc(ccc2OCCN2CCCC2)Nc2nccc(n2)-c2cccc(c2)COC/1` [PACRITINIB], the Kd in assay [1], in assay [2], in assay [3], in [4], in [5] and in [6] was > 30 µM (inactive) in each case. Further, the Kd in assay [7], in [8], in assay [9], in [10] and in assay [11] was > 30 µM (inactive) each time.
Consider `C[C@@H]1CN(Cc2ccc(F)cc2)[C@@H](C)CN1C(=O)c1cc2c(C(=O)C(=O)N(C)C)cn(C)c2cc1Cl` [TALMAPIMOD], for which the Kd in [1], in [2], in assay [3], in assay [4], in assay [5] and in [6] was > 30 µM (inactive) throughout. The Kd in assay [7], in [8], in assay [9], in [10] and in [11] was > 30 µM (inactive) in each case.
With `CN1CCC(COc2cnc(-c3cccc(Cn4nc(-c5cccc(C#N)c5)ccc4=O)c3)nc2)CC1` [TEPOTINIB], the Kd in assay [1], in assay [2], in [3], in [4], in [5] and in assay [6] was > 30 µM (inactive) throughout. For the same molecule, the Kd in [7], in assay [8], in assay [9], in assay [10] and in assay [11] was > 30 µM (inactive) each time.
For the molecule `C[C@@H](c1ccc2nccn2c1)n1nnc2ncc(-c3cnn(C)c3)nc21` [SAVOLITINIB], the Kd in assay [1], in assay [2], in assay [3], in [4], in [5] and in assay [6] was > 30 µM (inactive) each time. In addition, the Kd in assay [7], in [8], in assay [9], in [10] and in assay [11] was > 30 µM (inactive) throughout.
